Like-named read-outs stand apart in the source and are kept apart here. Starred links: 1 amine or outer side, 2 acyl side, 3 side chain; linkers in the order of their positions; H or OH if unused. Positions of bridges follow the written chain, without caps; N, C: chain ends. Non-standard residues stand in square brackets, D forms with d. Residues, ends and D or L forms follow the SMILES beside them. Groups on a side chain read outwards from the residue. *: point of attachment. X2 = O=C(O)CN1CCN(CC(=O)O)CCN(CC(=O)NCCOCCOCCOCCOCC(=O)*)CCN(CC(=O)O)CC1; Ala(piperidin-4-yl) = O=C([C@H](CC1CCN([*:3])CC1)N[*:1])[*:2]; DOTA = O=C(O)CN1CCN(CC(=O)O)CCN(CC(=O)*)CCN(CC(=O)O)CC1; Phe(4-NHCONH2) = NC(=O)Nc1ccc(C[C@H](N)C(=O)O)cc1; Trp(5-F) = N[C@@H](Cc1c[nH]c2ccc(F)cc12)C(=O)O; X1 = C[C@@H](c1ccccc1)[C@H](N[*:1])C(=O)[*:2]; Ala(4-THP) = N[C@@H](CC1CCOCC1)C(=O)O; Val(3-OH) = CC(C)(O)[C@H](N)C(=O)O; PEG4 = NCCOCCOCCOCCOCCC(=O)O; Tle = CC(C)(C)[C@H](N)C(=O)O; hLeu = CC(C)CC[C@H](N)C(=O)O; Sar = CNCC(=O)O
Experiments:
Calu-6 cell line [1] = assay: Cell associated (bound) fraction of [177Lu]Lu-labeled peptide in Calu-6 cells; format: cell-based, Human; conditions: 1 hour, 37° C.
Outline: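 Detached B7-H3-expressing human lung cancer cells at 5 million/mL were exposed for 1 hour at 37 °C to 0.8 μCi of the 177Lu-labelled peptide, which was formulated in 1% PBSA after labelling at 80 °C, pH ~5. Supernatant and two cold washes counted as unbound, and resuspended cells gamma-counted as the cell-associated fraction.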

Calu-6 cell line [2] = assay: Net internalization of [177Lu]Lu-labeled peptide in Calu-6 cells; format: cell-based, Human; conditions: 1 hour, 37° C., glycine pH 2.5 acid wash
Outline: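 Calu-6 cells, human non-engineered lung cancer expressing B7-H3, resuspended in 1% PBSA at 5 million cells/mL and incubated with the 177Lu-labeled conjugate (labeled at 80 °C, pH ~5, RP-HPLC checked). Gamma counting of the bound fraction, then of the pellet after two glycine pH 2.5 acid strips and NaOH lysis, gives internalized activity.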

human 4lg B7-H3 = biological target: T1, human 4lg B7-H3 (Homo sapiens, UniProt Q5ZPR3); assay: Affinity determination by surface plasmon resonance (SPR) to 4Ig B7-H3; conditions: 4Ig B7-H3
T1 sequence (Q5ZPR3 29-534): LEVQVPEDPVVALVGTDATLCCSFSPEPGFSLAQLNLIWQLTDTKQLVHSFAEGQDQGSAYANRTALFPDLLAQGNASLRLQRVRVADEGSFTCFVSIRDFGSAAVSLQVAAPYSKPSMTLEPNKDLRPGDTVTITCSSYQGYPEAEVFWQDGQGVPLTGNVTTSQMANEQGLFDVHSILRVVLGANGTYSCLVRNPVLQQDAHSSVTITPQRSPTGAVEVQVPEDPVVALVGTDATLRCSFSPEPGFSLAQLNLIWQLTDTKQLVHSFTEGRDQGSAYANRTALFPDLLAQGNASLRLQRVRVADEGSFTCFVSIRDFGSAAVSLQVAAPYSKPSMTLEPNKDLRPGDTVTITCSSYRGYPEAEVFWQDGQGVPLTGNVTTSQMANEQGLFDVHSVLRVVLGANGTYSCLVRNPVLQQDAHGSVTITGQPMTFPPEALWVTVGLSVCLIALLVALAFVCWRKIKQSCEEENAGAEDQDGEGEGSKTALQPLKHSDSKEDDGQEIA

[3] = read-out: SPR KD—37° C., 37° C. flow cell temperature
[4] = SPR KD—37° C., 37° C. flow cell temperature
[5] = read-out: SPR KD—25° C., 25° C. flow cell temperature
[6] = SPR KD—25° C., 25° C. flow cell temperature

| Compound | % cell associated fraction (Calu-6 cell line [1]) | % net internalization (Calu-6 cell line [2]) | Kd (human 4lg B7-H3; [3]) [nM] | Kd (human 4lg B7-H3; [4]) [nM] | Kd (human 4lg B7-H3; [5]) [nM] | Kd (human 4lg B7-H3; [6]) [nM] |
| --- | --- | --- | --- | --- | --- | --- |
| CC(=O)N[C@@H](CCC(C)C)C(=O)N[C@@H](Cc1ccc(O)cc1)C(=O)N[C@H]1CSSC[C@@H](C(=O)N[C@@H](Cc2c[nH]c3ccc(F)cc23)C(=O)N[C@H](C(=O)N[C@H](C(=O)N[C@H](CCC(=O)O)C(N)=O)C(C)(C)O)[C@@H](C)c2ccccc2)NC(=O)[C@H](Cc2ccc(O)cc2)NC(=O)[C@H](C(C)C)NC(=O)[C@H](CC(=O)O)NC(=O)[C@H](CC2CCN(C(=O)CCOCCOCCOCCOCCNC(=O)CN3CCN(CC(=O)O)CCN(CC(=O)O)CCN(CC(=O)O)CC3)CC2)NC(=O)[C@H](CC2CCNCC2)NC(=O)CNC(=O)[C@H](C(C)(C)C)NC1=O [compound 495, Ac-hLeu-Y-C-Tbg-G-PipAla-Pip(PEG4-DOTA)Ala-D-V-Y-C-5FW-[(2S, 3S)beta-Me-Phe]-hydroxyVal-dGlu-CONH2] (Ac-[hLeu]YC[Tle]G[Ala(piperidin-4-yl)][Ala(piperidin-4-yl)]([PEG4-DOTA])DVYC[Trp(5-F)][X1][Val(3-OH)][dE]-NH2; disulfide 3-11) | C (%>50) | A (%≤25) | < 1 |  |  |  |
| CC(=O)N[C@@H](CCC(C)C)C(=O)N[C@@H](Cc1ccc(O)cc1)C(=O)N[C@H]1CSSC[C@@H](C(=O)N[C@@H](Cc2c[nH]c3ccc(F)cc23)C(=O)N[C@H](C(=O)N[C@H](C(=O)N[C@H](CCCCNC(=O)CN2CCN(CC(=O)O)CCN(CC(=O)O)CCN(CC(=O)O)CC2)C(=O)O)C(C)(C)O)[C@@H](C)c2ccccc2)NC(=O)[C@H](Cc2ccc(O)cc2)NC(=O)[C@H](C(C)C)NC(=O)[C@H](CC(=O)O)NC(=O)[C@H](CC2CCOCC2)NC(=O)[C@H](CC2CCNCC2)NC(=O)CNC(=O)[C@H](C(C)(C)C)NC1=O [compound 433, Ac-hLeu-Y-C-Tbg-G-PipAla-ThpA-D-V-Y-C-5FW-[(2S, 3S)beta-Me-Phe]-hydroxyVal-dLys(DOTA)-COOH] (Ac-[hLeu]YC[Tle]G[Ala(piperidin-4-yl)][Ala(4-THP)]DVYC[Trp(5-F)][X1][Val(3-OH)][dK](DOTA)-OH; disulfide 3-11) | C (%>50) | B (25<%≤50) |  | < 1 |  |  |
| CC(=O)N[C@@H](CCC(C)C)C(=O)N[C@@H](Cc1ccc(O)cc1)C(=O)N[C@H]1CSSC[C@@H](C(=O)N[C@@H](Cc2c[nH]c3ccc(F)cc23)C(=O)N[C@@H](Cc2ccccc2)C(=O)N2CCC[C@H]2C(=O)N[C@H](CCCCNC(=O)CN2CCN(CC(=O)O)CCN(CC(=O)O)CCN(CC(=O)O)CC2)C(N)=O)NC(=O)[C@H](Cc2ccc(O)cc2)NC(=O)[C@H](C(C)C)NC(=O)[C@H](CC(=O)O)NC(=O)[C@H](Cc2ccc(O)cc2)NC(=O)[C@H](CCCCN)NC(=O)CNC(=O)[C@H](C(C)C)NC1=O [compound 160, Ac-hLeu-Y-C-V-G-K-Y-D-V-Y-C-5FW-F-Pro-dLys(DOTA)-CONH2] (Ac-[hLeu]YCVGKYDVYC[Trp(5-F)]FP[dK](DOTA)-NH2; disulfide 3-11) | B (25<%≤50) | A (%≤25) |  |  | < 1 |  |
| CC(=O)N[C@@H](CCC(C)C)C(=O)N[C@@H](Cc1ccc(O)cc1)C(=O)N[C@H]1CSSC[C@@H](C(=O)N[C@@H](Cc2c[nH]c3ccc(F)cc23)C(=O)N[C@@H](Cc2ccccc2)C(=O)N[C@H](C(=O)N[C@H](CCCCNC(=O)CN2CCN(CC(=O)O)CCN(CC(=O)O)CCN(CC(=O)O)CC2)C(=O)O)C(C)(C)O)NC(=O)[C@H](Cc2ccc(NC(N)=O)cc2)NC(=O)[C@H](C(C)C)NC(=O)[C@H](CC(=O)O)NC(=O)[C@H](CC2CCOCC2)NC(=O)[C@H](CC2CCNCC2)NC(=O)CNC(=O)[C@H](C(C)(C)C)NC1=O [compound 427, Ac-hLeu-Y-C-Tbg-G-PipAla-ThpA-D-V-Aph(Cbm)-C-5FW-F-hydroxyVal-dLys(DOTA)-COOH] (Ac-[hLeu]YC[Tle]G[Ala(piperidin-4-yl)][Ala(4-THP)]DV[Phe(4-NHCONH2)]C[Trp(5-F)]F[Val(3-OH)][dK](DOTA)-OH; disulfide 3-11) | C (%>50) | B (25<%≤50) | < 1 |  |  |  |
| CC(=O)N[C@@H](CCC(C)C)C(=O)N[C@@H](Cc1ccc(O)cc1)C(=O)N[C@H]1CSSC[C@@H](C(=O)N[C@@H](Cc2c[nH]c3ccc(F)cc23)C(=O)N[C@H](C(=O)N[C@H](C(=O)N[C@H](CCCCNC(=O)[C@@H](CCC(=O)O)NC(=O)CN2CCN(CC(=O)O)CCN(CC(=O)O)CCN(CC(=O)O)CC2)C(=O)O)C(C)(C)O)[C@@H](C)c2ccccc2)NC(=O)[C@H](Cc2ccc(O)cc2)NC(=O)[C@H](C(C)C)NC(=O)[C@H](CC(=O)O)NC(=O)[C@H](CC2CCOCC2)NC(=O)[C@H](CC2CCNCC2)NC(=O)CNC(=O)[C@H](C(C)(C)C)NC1=O [compound 501, Ac-hLeu-Y-C-Tbg-G-PipAla-ThpA-D-V-Y-C-5FW-[(2S, 3S)beta-Me-Phe]-hydroxyVal-dLys(dGlu-DOTA)-COOH] (Ac-[hLeu]YC[Tle]G[Ala(piperidin-4-yl)][Ala(4-THP)]DVYC[Trp(5-F)][X1][Val(3-OH)][dK]([dE-DOTA])-OH; disulfide 3-11) | C (%>50) | B (25<%≤50) | < 1 |  |  |  |
| CC[C@H](C)[C@@H]1NC(=O)[C@@H](NC(=O)[C@H](Cc2ccc(O)cc2)NC(=O)[C@H](CCC(C)C)NC(C)=O)CSSC[C@@H](C(=O)N[C@@H](Cc2c[nH]c3ccc(F)cc23)C(=O)N[C@@H](Cc2ccccc2)C(=O)N[C@H](C(=O)N[C@H](CCCCNC(=O)COCCOCCOCCOCCNC(=O)CN2CCN(CC(=O)O)CCN(CC(=O)O)CCN(CC(=O)O)CC2)C(=O)O)C(C)(C)O)NC(=O)[C@H](Cc2ccc(O)cc2)NC(=O)[C@H](C(C)C)NC(=O)[C@H](CC(=O)O)NC(=O)[C@H](CC2CCOCC2)NC(=O)[C@H](CCCCN)NC(=O)CNC1=O [compound 308, Ac-hLeu-Y-C-Ile-G-K-ThpA-D-V-Y-C-5FW-F-hydroxyVal-dLys(PEG4-DOTA)-COOH] (Ac-[hLeu]YCIGK[Ala(4-THP)]DVYC[Trp(5-F)]F[Val(3-OH)][dK](X2)-OH; disulfide 3-11) | C (%>50) | B (25<%≤50) |  |  |  | < 1 |
| CC(=O)N[C@@H](CCC(C)C)C(=O)N[C@@H](Cc1ccc(O)cc1)C(=O)N[C@H]1CSSC[C@@H](C(=O)N[C@@H](Cc2c[nH]c3ccccc23)C(=O)N[C@@H](Cc2ccccc2)C(=O)N[C@H](C(=O)N[C@H](CCCCNC(=O)CN2CCN(CC(=O)O)CCN(CC(=O)O)CCN(CC(=O)O)CC2)C(N)=O)[C@@H](C)O)NC(=O)[C@H](Cc2ccc(O)cc2)NC(=O)[C@H](C(C)C)NC(=O)[C@H](CC(=O)O)NC(=O)[C@H](Cc2ccc(O)cc2)NC(=O)[C@H](CCCCN)NC(=O)CN(C)C(=O)[C@H](C(C)C)NC1=O [compound 74, Ac-hLeu-Y-C-V-Sar-K-Y-D-V-Y-C-W-F-Thr-dLys(DOTA)-CONH2] (Ac-[hLeu]YCV[Sar]KYDVYCWFT[dK](DOTA)-NH2; disulfide 3-11) | B (25<%≤50) | A (%≤25) |  |  | 1 to 10 |  |
| CC(=O)N[C@@H](CCC(C)C)C(=O)N[C@@H](Cc1ccc(O)cc1)C(=O)N[C@H]1CSSC[C@@H](C(=O)N[C@@H](Cc2c[nH]c3ccc(F)cc23)C(=O)N[C@@H](Cc2ccccc2)C(=O)N[C@H](C(N)=O)C(C)(C)O)NC(=O)[C@H](Cc2ccc(O)cc2)NC(=O)[C@H](C(C)C)NC(=O)[C@H](CC(=O)O)NC(=O)[C@H](CC2CCN(C(=O)CCOCCOCCOCCOCCNC(=O)CN3CCN(CC(=O)O)CCN(CC(=O)O)CCN(CC(=O)O)CC3)CC2)NC(=O)[C@H](CCCCN)NC(=O)CNC(=O)[C@H](C(C)(C)C)NC1=O [compound 383, Ac-hLeu-Y-C-Tbg-G-K-Pip(PEG4-DOTA)Ala-D-V-Y-C-5FW-F-hydroxyVal-CONH2] (Ac-[hLeu]YC[Tle]GK[Ala(piperidin-4-yl)]([PEG4-DOTA])DVYC[Trp(5-F)]F[Val(3-OH)]-NH2; disulfide 3-11) | B (25<%≤50) | B (25<%≤50) | < 1 |  |  |  |
| CC(=O)N[C@@H](CCC(C)C)C(=O)N[C@@H](Cc1ccc(O)cc1)C(=O)N[C@H]1CSSC[C@@H](C(=O)N[C@@H](Cc2c[nH]c3ccc(F)cc23)C(=O)N[C@@H](Cc2ccccc2)C(=O)N[C@H](C(=O)N[C@H](CCCCNC(=O)COCCOCCOCCOCCNC(=O)CN2CCN(CC(=O)O)CCN(CC(=O)O)CCN(CC(=O)O)CC2)C(=O)O)C(C)(C)O)NC(=O)[C@H](Cc2ccc(O)cc2)NC(=O)[C@H](C(C)C)NC(=O)[C@H](CC(=O)O)NC(=O)[C@H](CC2CCOCC2)NC(=O)[C@H](CCCCN)NC(=O)CNC(=O)[C@H](C(C)(C)C)NC1=O [compound 310, Ac-hLeu-Y-C-Tbg-G-K-ThpA-D-V-Y-C-5FW-F-hydroxyVal-dLys(PEG4-DOTA)-COOH] (Ac-[hLeu]YC[Tle]GK[Ala(4-THP)]DVYC[Trp(5-F)]F[Val(3-OH)][dK](X2)-OH; disulfide 3-11) | C (%>50) | B (25<%≤50) |  | < 1 |  | < 1 |

Source: patent publication US20250296959A1, “B7-H3 TARGETING PEPTIDES AND CONSTRUCTS THEREOF” (Mariana Oncology Inc., priority 2024, published 2025)
